Test results published in the NIST ThermoML archive (doi:10.1016/j.fluid.2010.03.010).

Conditions: Liquid, Vibrating tube method

CCCCn1cc[n+](C)c1.N#CN=C=[N-] [1-butyl-3-methylimidazolium dicyanamide]
Conditions | mass density [kg/m3]
293.15 K, 100 kPa | 1064.4
293.15 K, 101.33 kPa | 1063.73
293.15 K, 250 kPa | 1064.4
293.15 K, 500 kPa | 1064.5
293.15 K, 1000 kPa | 1064.7
293.15 K, 2000 kPa | 1065.1
293.15 K, 4990 kPa | 1066.2
293.15 K, 10010 kPa | 1068.2
293.15 K, 15000 kPa | 1070
293.15 K, 20000 kPa | 1071.9
293.15 K, 25000 kPa | 1073.6
293.15 K, 30000 kPa | 1075.4
293.15 K, 35000 kPa | 1077.1
293.15 K, 40000 kPa | 1078.9
293.15 K, 45000 kPa | 1080.5
293.15 K, 50000 kPa | 1082.2
293.15 K, 55000 kPa | 1083.8
293.15 K, 60000 kPa | 1085.4
294.15 K, 101.33 kPa | 1063.09
295.15 K, 101.33 kPa | 1062.45
296.15 K, 101.33 kPa | 1061.81
297.15 K, 101.33 kPa | 1061.17
298.15 K, 101.33 kPa | 1060.53
299.15 K, 101.33 kPa | 1059.89
300.15 K, 101.33 kPa | 1059.26
301.15 K, 101.33 kPa | 1058.62
302.15 K, 101.33 kPa | 1057.99
303.15 K, 100 kPa | 1057.9
303.15 K, 101.33 kPa | 1057.35
303.15 K, 250 kPa | 1057.9
303.15 K, 500 kPa | 1058
303.15 K, 1000 kPa | 1058.2
303.15 K, 2000 kPa | 1058.6
303.15 K, 4990 kPa | 1059.8
303.15 K, 10000 kPa | 1061.8
303.15 K, 14990 kPa | 1063.6
303.15 K, 20010 kPa | 1065.5
303.15 K, 25000 kPa | 1067.4
303.15 K, 30000 kPa | 1069.2
303.15 K, 34990 kPa | 1070.9
303.15 K, 40000 kPa | 1072.7
303.15 K, 45000 kPa | 1074.4
303.15 K, 50000 kPa | 1076.1
303.15 K, 55000 kPa | 1077.8
303.15 K, 60000 kPa | 1079.4
304.15 K, 101.33 kPa | 1056.72
305.15 K, 101.33 kPa | 1056.09
306.15 K, 101.33 kPa | 1055.45
307.15 K, 101.33 kPa | 1054.82
308.15 K, 101.33 kPa | 1054.19
309.15 K, 101.33 kPa | 1053.56
310.15 K, 101.33 kPa | 1052.93
311.15 K, 101.33 kPa | 1052.31
312.15 K, 101.33 kPa | 1051.68
313.15 K, 100 kPa | 1051.5
313.15 K, 101.33 kPa | 1051.05
313.15 K, 250 kPa | 1051.5
313.15 K, 500 kPa | 1051.6
313.15 K, 1000 kPa | 1051.8
313.15 K, 2000 kPa | 1052.3
313.15 K, 4990 kPa | 1053.4
313.15 K, 10000 kPa | 1055.5
313.15 K, 14990 kPa | 1057.4
313.15 K, 20010 kPa | 1059.4
313.15 K, 25000 kPa | 1061.2
313.15 K, 30000 kPa | 1063.1
313.15 K, 35000 kPa | 1064.9
313.15 K, 40010 kPa | 1066.7
313.15 K, 45000 kPa | 1068.4
313.15 K, 50000 kPa | 1070.2
313.15 K, 55010 kPa | 1071.9
313.15 K, 60000 kPa | 1073.6
314.15 K, 101.33 kPa | 1050.43
315.15 K, 101.33 kPa | 1049.8
316.15 K, 101.33 kPa | 1049.18
317.15 K, 101.33 kPa | 1048.56
318.15 K, 101.33 kPa | 1047.94
319.15 K, 101.33 kPa | 1047.32
320.15 K, 101.33 kPa | 1046.7
321.15 K, 101.33 kPa | 1046.08
322.15 K, 101.33 kPa | 1045.46
323.15 K, 100 kPa | 1045.2
323.15 K, 101.33 kPa | 1044.84
323.15 K, 250 kPa | 1045.3
323.15 K, 500 kPa | 1045.4
323.15 K, 1000 kPa | 1045.6
323.15 K, 2010 kPa | 1046
323.15 K, 4990 kPa | 1047.3
323.15 K, 10010 kPa | 1049.3
323.15 K, 14990 kPa | 1051.3
323.15 K, 20010 kPa | 1053.3
323.15 K, 25000 kPa | 1055.2
323.15 K, 30010 kPa | 1057.1
323.15 K, 34990 kPa | 1058.9
323.15 K, 40000 kPa | 1060.8
323.15 K, 45000 kPa | 1062.6
323.15 K, 50000 kPa | 1064.4
323.15 K, 55000 kPa | 1066.1
323.15 K, 60000 kPa | 1067.8
324.15 K, 101.33 kPa | 1044.22
325.15 K, 101.33 kPa | 1043.61
326.15 K, 101.33 kPa | 1042.99
327.15 K, 101.33 kPa | 1042.37
328.15 K, 101.33 kPa | 1041.76
329.15 K, 101.33 kPa | 1041.14
330.15 K, 101.33 kPa | 1040.53
331.15 K, 101.33 kPa | 1039.92
332.15 K, 101.33 kPa | 1039.3
333.15 K, 100 kPa | 1039
333.15 K, 101.33 kPa | 1038.69
333.15 K, 250 kPa | 1039.1
333.15 K, 500 kPa | 1039.2
333.15 K, 1000 kPa | 1039.4
333.15 K, 2000 kPa | 1039.9
333.15 K, 4990 kPa | 1041.1
333.15 K, 10000 kPa | 1043.2
333.15 K, 15000 kPa | 1045.2
333.15 K, 20000 kPa | 1047.3
333.15 K, 25000 kPa | 1049.2
333.15 K, 30000 kPa | 1051.3
333.15 K, 34990 kPa | 1053.1
333.15 K, 40000 kPa | 1055
333.15 K, 45010 kPa | 1056.8
333.15 K, 50000 kPa | 1058.6
333.15 K, 55000 kPa | 1060.4
333.15 K, 60000 kPa | 1062.2
334.15 K, 101.33 kPa | 1038.08
335.15 K, 101.33 kPa | 1037.47
336.15 K, 101.33 kPa | 1036.86
337.15 K, 101.33 kPa | 1036.25
338.15 K, 101.33 kPa | 1035.64
339.15 K, 101.33 kPa | 1035.03
340.15 K, 101.33 kPa | 1034.42
341.15 K, 101.33 kPa | 1033.82
342.15 K, 101.33 kPa | 1033.21
343.15 K, 100 kPa | 1032.9
343.15 K, 101.33 kPa | 1032.61
343.15 K, 250 kPa | 1033
343.15 K, 500 kPa | 1033.1
343.15 K, 1000 kPa | 1033.3
343.15 K, 2000 kPa | 1033.7
343.15 K, 4990 kPa | 1035
343.15 K, 10010 kPa | 1037.2
343.15 K, 15000 kPa | 1039.2
343.15 K, 20010 kPa | 1041.4
343.15 K, 25000 kPa | 1043.3
343.15 K, 30000 kPa | 1045.4
343.15 K, 35010 kPa | 1047.3
343.15 K, 40000 kPa | 1049.3
343.15 K, 45000 kPa | 1051.1
343.15 K, 50000 kPa | 1053
343.15 K, 55000 kPa | 1054.7
343.15 K, 60000 kPa | 1056.6
344.15 K, 101.33 kPa | 1032
345.15 K, 101.33 kPa | 1031.4
346.15 K, 101.33 kPa | 1030.79
347.15 K, 101.33 kPa | 1030.19
348.15 K, 101.33 kPa | 1029.59
349.15 K, 101.33 kPa | 1028.98
350.15 K, 101.33 kPa | 1028.38
351.15 K, 101.33 kPa | 1027.78
352.15 K, 101.33 kPa | 1027.18
353.15 K, 100 kPa | 1026.8
353.15 K, 101.33 kPa | 1026.58
353.15 K, 250 kPa | 1026.9
353.15 K, 500 kPa | 1027
353.15 K, 1000 kPa | 1027.2
353.15 K, 2000 kPa | 1027.7
353.15 K, 5000 kPa | 1029
353.15 K, 10000 kPa | 1031.3
353.15 K, 15000 kPa | 1033.4
353.15 K, 20000 kPa | 1035.5
353.15 K, 25000 kPa | 1037.5
353.15 K, 30010 kPa | 1039.6
353.15 K, 35000 kPa | 1041.6
353.15 K, 40000 kPa | 1043.6
353.15 K, 45000 kPa | 1045.4
353.15 K, 50000 kPa | 1047.4
353.15 K, 55000 kPa | 1049.2
353.15 K, 60000 kPa | 1051
354.15 K, 101.33 kPa | 1025.98
355.15 K, 101.33 kPa | 1025.38
356.15 K, 101.33 kPa | 1024.79
357.15 K, 101.33 kPa | 1024.19
358.15 K, 101.33 kPa | 1023.59
359.15 K, 101.33 kPa | 1022.99
360.15 K, 101.33 kPa | 1022.4
361.15 K, 101.33 kPa | 1021.8
362.15 K, 101.33 kPa | 1021.21
363.15 K, 100 kPa | 1020.8
363.15 K, 101.33 kPa | 1020.61
363.15 K, 250 kPa | 1020.9
363.15 K, 500 kPa | 1021
363.15 K, 1000 kPa | 1021.3
363.15 K, 2000 kPa | 1021.7
363.15 K, 4990 kPa | 1023.1
363.15 K, 10000 kPa | 1025.4
363.15 K, 14990 kPa | 1027.6
363.15 K, 20010 kPa | 1029.8
363.15 K, 25010 kPa | 1031.8
363.15 K, 30000 kPa | 1033.9
363.15 K, 35000 kPa | 1035.9
363.15 K, 40000 kPa | 1038
363.15 K, 45000 kPa | 1039.9
363.15 K, 50000 kPa | 1041.8
363.15 K, 55000 kPa | 1043.7
363.15 K, 60000 kPa | 1045.6
373.15 K, 100 kPa | 1014.9
373.15 K, 250 kPa | 1015
373.15 K, 500 kPa | 1015.1
373.15 K, 1000 kPa | 1015.4
373.15 K, 2000 kPa | 1015.8
373.15 K, 4990 kPa | 1017.2
373.15 K, 10000 kPa | 1019.5
373.15 K, 15000 kPa | 1021.8
373.15 K, 20000 kPa | 1024
373.15 K, 25000 kPa | 1026.2
373.15 K, 30000 kPa | 1028.3
373.15 K, 35000 kPa | 1030.3
373.15 K, 40000 kPa | 1032.4
373.15 K, 45000 kPa | 1034.4
373.15 K, 50000 kPa | 1036.4
373.15 K, 55000 kPa | 1038.3
373.15 K, 60000 kPa | 1040.2
393.15 K, 100 kPa | 1003.2
393.15 K, 250 kPa | 1003.3
393.15 K, 500 kPa | 1003.4
393.15 K, 1000 kPa | 1003.7
393.15 K, 2000 kPa | 1004.1
393.15 K, 4990 kPa | 1005.6
393.15 K, 10010 kPa | 1008.1
393.15 K, 15000 kPa | 1010.4
393.15 K, 20010 kPa | 1012.8
393.15 K, 25000 kPa | 1015
393.15 K, 30000 kPa | 1017.2
393.15 K, 35000 kPa | 1019.4
393.15 K, 40000 kPa | 1021.6
393.15 K, 45000 kPa | 1023.6
393.15 K, 50000 kPa | 1025.7
393.15 K, 55000 kPa | 1027.7
393.15 K, 60000 kPa | 1029.6
